US20070099855A1 (priority 2003, published 2007)

Assays:
in vitro = conditions: African green monkey
[1] = test system: FipV (Feline infectious peritonitis Virus); assay: microbe, parasite or virus in culture; assay type: cell-based
CRFK cells = conditions: cat
[2] = test system: TGEV (Transmissible gastroenteritis Virus); assay: microbe, parasite or virus in culture; assay type: cell-based
[3] = test system: SARS-associated coronavirus; assay type: cell-based; conditions: added to the culture medium; results not shown
Vero cells = conditions: African green monkey
[4] = test system: SARS-associated coronavirus; assay type: cell-based; conditions: Vero cells, 72 hours after infection
nitrous oxide synthase = assay type: cell-based
TGEV = assay type: cell-based, Transmissible gastroenteritis Virus; conditions: 500 μM
FipV = assay type: cell-based, Feline infectious peritonitis Virus; conditions: 500 μM

COC(=O)[C@@]1(C)CC[C@]2(C)CC[C@]3(C)C(=CC(=O)C4[C@@]5(C)CCC(OC6OC(CO)C(O)C(O)C6OC6OC(CO)C(O)C(O)C6O)C(C)(C)C5CC[C@]43C)C2C1 (stereo partly drawn) [Compound 8]
CC50 (in vitro): 44 µM

COc1c(C)c2c(c(O)c1C/C=C(\C)CCC(=O)O)C(=O)OC2 [Mycophenolic acid]
CC50 (in vitro): > 50 µg/mL

NC(=O)c1[nH]nc([C@@H]2O[C@H](CO)[C@@H](O)[C@H]2O)c1O [Pyrazofurin]
CC50 (in vitro): 52 µg/mL

O=c1cnn([C@@H]2O[C@H](CO)[C@@H](O)[C@H]2O)c(=O)[nH]1 [Compound 6-azauridine, 6-azauridine]
CC50 (in vitro): 104 µg/mL

CC1(C)C(OC2OC(C(=O)O)C(O)C(O)C2OC2OC(C(=O)O)C(O)C(O)C2O)CC[C@@]2(C)C1CC[C@]1(C)C2C(=O)C=C2C3C[C@@](C)(C(=O)O)CC[C@]3(C)CC[C@]21C.N (stereo partly drawn) [Glycyrrhizin Monoammonium Salt]
inhibition of CPE, FipV [1]: Partial inhibition | EC50 ([1]; Alphacoronavirus 1, CRFK, 48 h, read-out: EC50, FipV): < 500 µM | Tox. CRFK cells (CRFK cells): >1 mM | inhibition of CPE, TGEV [2]: Partial inhibition | EC50 ([2]; Alphacoronavirus 1, CRFK, 48 h, read-out: EC50, TGEV): < 500 µM | CC50 (in vitro): 625 µM

NCCN(CCN)/[N+]([O-])=N/O [DETANONOate]
SARS-associated coronavirus replication [3]: replication was inhibited

COC(=O)[C@@]1(C)CC[C@]2(C)CC[C@]3(C)C(=CC(=O)C4[C@@]5(C)CCC(OC6OC(C(=O)NN)C(O)C(O)C6OC6OC(C(=O)NN)C(O)C(O)C6O)C(C)(C)C5CC[C@]43C)C2C1 (stereo partly drawn) [Compound 7]
CC50 (in vitro): 66 µM

NC(=O)c1ncn([C@@H]2O[C@H](CO)[C@@H](O)[C@H]2O)n1 [Ribavirin]
CC50 (in vitro): > 1000 µg/mL

CC1(C)C(OC2OC(C(=O)O)C(O)C(O)C2OC2OC(C(=O)O)C(O)C(O)C2O)CC[C@]2(C)[C@H]3C(=O)C=C4[C@@H]5C[C@@](C)(C(=O)O)CC[C@]5(C)CC[C@@]4(C)[C@]3(C)CC[C@@H]12 (stereo partly drawn) [Glycyrrhizin, (3-beta,20-beta)-20-Carboxy-11-oxo-30-norolean-12-en-3-yl 2-O-beta-D-glucopyranuronosyl-alpha-D-glucopyranosiduronic acid]
CC50 (Vero cells): >20,000 mg/L | expression of viral antigens ([4]; 1000 mg/L): much lower | replication of the virus ([4]; 4000 mg/L): completely blocked replication of the virus | induction of nitrous oxide synthase (nitrous oxide synthase): induced nitrous oxide synthase | virus replication, TGEV (TGEV): significantly reduced | virus replication, FipV (FipV): significantly reduced | CC50 (in vitro): > 20000 µg/mL | cytotoxicity (in vitro): 20 to 30%
